Measured values published in patent US20140018750A1, “METHOD AND DEVICE OR PHARMACEUTICAL COMPOSITIONS FOR THE TRANSDERMAL DELIVERY OF MAGNESIUM DIRECTLY TO THE NEUROMUSCULAR JUNCTION FOR THE TREATMENT OF MUSCLE CRAMPING” (priority 2012, published 2014).

What was measured:
sciatica = details: Patient Michael, cream composed of aloe combined with 8% by MW of magnesium sulfate

In the case of `O=S(=O)([O-])[O-].[Mg+2]` [magnesium sulfate], the time to relief (muscle cramping; Patient Doris, reoccurring severe muscle cramps in the right foot, liquid solution, 8% by MW of magnesium sulfate, applied to the area) is reported as “three”, the “time until began to experience relief” value (muscle cramping; Patient Henry, severe muscle cramps in the upper right arm after exertion, liquid form of 8% by MW of magnesium sulfate applied directly) is reported as “three” and the “time to relief from both symptoms” value (muscle cramping; Patient Norma, severe leg cramps with restless leg syndrome, towel soaked in composition with 8% by MW of magnesium sulfate applied to affected area) is reported as “four”. The time to relief (sciatica) was “six”.
